This note sets out measurements from ChEMBL document CHEMBL1137386, “Pyrrolidine carboxamides as a novel class of inhibitors of enoyl acyl carrier protein reductase from Mycobacterium tuberculosis” (J Med Chem, 2006).

In brackets after ≈: the same amount, converted by molar mass. Activity calls are given as the source filed them. The calls are words filed in the database; no cut-off is given here.

Experiment [1] has as its target T1, Enoyl-[acyl-carrier-protein] reductase [NADH] (Mycobacterium tuberculosis) (UniProt P9WGR1).
T1 sequence (whole entry): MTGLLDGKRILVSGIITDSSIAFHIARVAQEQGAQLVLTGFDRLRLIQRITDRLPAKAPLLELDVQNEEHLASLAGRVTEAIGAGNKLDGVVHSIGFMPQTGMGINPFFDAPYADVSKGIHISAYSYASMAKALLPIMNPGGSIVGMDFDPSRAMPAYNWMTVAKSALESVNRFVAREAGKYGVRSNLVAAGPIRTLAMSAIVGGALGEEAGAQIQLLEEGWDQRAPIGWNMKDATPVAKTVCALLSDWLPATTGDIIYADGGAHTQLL
Particulars: 20 uM.

Experiment [2] deals with T2, Enoyl-[acyl-carrier-protein] reductase [NADH] (Mycobacterium tuberculosis, UniProt P9WGR1).
T2 sequence (P9WGR1 whole entry): T1 sequence (whole entry)
Description: (§1) Inhibition of Mycobacterium tuberculosis InhA

Experiment [3] addresses T1, Enoyl-[acyl-carrier-protein] reductase [NADH] (Mycobacterium tuberculosis).
Description: as §1
Experiment [4] relates to Mycobacterium tuberculosis. As to the kind of experiment: Antibacterial activity against Mycobacterium tuberculosis H37Rv by alamar blue assay. The class given is functional.
The target in experiment [5] is T1, Enoyl-[acyl-carrier-protein] reductase [NADH] (Mycobacterium tuberculosis). Particulars: 2.4 uM.
Description: Inhibition of Mycobacterium tuberculosis InhA at 2.4 uM

For `Cc1nnc(NC(=O)C2CC(=O)N(C3CCCCC3)C2)s1` (configuration not stated), the outcome in experiment [1] was inactive.
As to `O=C(Nc1cc(Cl)cc(Cl)c1)C1CC(=O)N(C2CCCCC2)C1` (stereo in doubt; d11b), the IC50 in experiment [2] was 200 nM.
`O=C(Nc1cccc(-c2ccccc2)c1)C1CC(=O)N(C2CCCCC2)C1` (stereo in doubt; p24b) yielded an IC50 in experiment [2] of 255 nM.
On the same count and under the same terms, next, `O=C(Nc1cc(Cl)cc(Cl)c1)C1CC(=O)N(C2CCCCC2)C1` (stereo in doubt; d11a): 8160 nM.
Consider `O=C(Nc1nnc(CCc2ccccc2)s1)C1CC(=O)N(C2CCCCC2)C1` (configuration not stated), for which, in experiment [1], the result was inactive.
Regarding `NC(=O)c1cccc(NC(=O)C2CC(=O)N(C3CCCCC3)C2)c1` (configuration not stated), the outcome in experiment [3] was inactive.
Take `O=C(C1CC(=O)N(C2CCCCC2)C1)N1CCOCC1` (configuration not stated): the outcome in experiment [1] was inactive.
As for `O=C(C1CC(=O)N(C2CCCCC2)C1)N1CCN(c2ccccc2)CC1` (configuration not stated), in experiment [1], the outcome was inactive.
Molecule `O=C(Nc1cccc(Br)c1)C1CC(=O)N(C2CCCCC2)C1` (configuration not stated) came in with an IC50 in experiment [2] of 890 nM.
For `O=C(Nc1cccc(OCc2ccccc2)c1)C1CC(=O)N(C2CCCCC2)C1` (configuration not stated), the minimal inhibitory concentration (MIC) in experiment [4] came to 125 µM (≈ 49.1 µg/mL).
As to `CC(=O)c1cccc(NC(=O)C2CC(=O)N(C3CCCCC3)C2)c1` (configuration not stated), the result in experiment [3] was inactive.
In experiment [5], `O=C(Nc1cc(-c2ccccc2)c(O)c(-c2ccccc2)c1)C1CC(=O)N(C2CCCCC2)C1` (stereo in doubt; p64a) had an inhibition of 72.7%.
In experiment [2], `Cc1ccc(Cl)cc1NC(=O)C1CC(=O)N(C2CCCCC2)C1` (configuration not stated) displayed an IC50 of 970 nM.
As to `N#Cc1c(NC(=O)C2CC(=O)N(C3CCCCC3)C2)sc2c1CCCC2` (configuration not stated), the result in experiment [1] was inactive.
For the molecule `CCc1nnc(NC(=O)C2CC(=O)N(C3CCCCC3)C2)s1` (configuration not stated), the result in experiment [1] was inactive.
In experiment [2], `O=C(Nc1cccc(Br)c1)C1CC(=O)N(c2ccccc2)C1` (configuration not stated) returned an IC50 of 13500 nM.
As to `CS(=O)(=O)Nc1cccc(NC(=O)C2CC(=O)N(C3CCCCC3)C2)c1` (configuration not stated), in experiment [3], the result was inactive.
For the molecule `O=C(Nc1cccc(Cc2ccccc2)c1)C1CC(=O)N(C2CCCCC2)C1` (configuration not stated), in experiment [2], the half-maximal inhibitory concentration (IC50) turned out to be 410 nM.
`CN(Cc1c2ccccc2cc2ccccc12)C(=O)C1CC(=O)N(C2CC3CCC2C3)C1` (configuration not stated): inhibition in experiment [2] was half-maximal at 850 nM (IC50). In experiment [4], this molecule gave a minimum inhibitory concentration (MIC) of 125 µM (≈ 53.3 µg/mL).
Turning to `CN1CCN(C(=O)C2CC(=O)N(C3CCCCC3)C2)CC1` (configuration not stated), the result in experiment [1] was inactive.
In turn, `O=C(Nc1cccc(-c2ccccc2)c1)C1CC(=O)N(C2CC3CCC2C3)C1` (configuration not stated) yielded an IC50 in experiment [2] of 460 nM.
Regarding `O=C(NC1CCCC1)C1CC(=O)N(C2CCCCC2)C1` (configuration not stated), the result in experiment [1] was inactive.
On the same count and under the same terms, in the case of `O=C(Nc1nnc(Cc2ccccc2)s1)C1CC(=O)N(C2CCCCC2)C1` (configuration not stated) it was “inactive”.
As for `CN(Cc1c2ccccc2cc2ccccc12)C(=O)C1CC(=O)N(C2CCCCCC2)C1` (configuration not stated), the IC50 in experiment [2] amounted to 320 nM. Moreover, the lowest concentration to inhibit growth in experiment [4] (MIC) was 125 µM (≈ 53.6 µg/mL).
`O=C(Nc1cc(Cl)cc(Cl)c1)C1CC(=O)N(C2CCCCC2)C1` (stereo in doubt; d11) displayed a concentration for half-maximal inhibition (IC50) in experiment [2] of 390 nM.
`O=C(Nc1cc(-c2ccccc2)c(O)c(-c2ccccc2)c1)C1CC(=O)N(C2CCCCCC2)C1` (configuration not stated) gave a concentration for half-maximal inhibition (IC50) in experiment [2] of 270 nM.
For the molecule `COCc1nnc(NC(=O)C2CC(=O)N(C3CCCCC3)C2)s1` (configuration not stated), the outcome in experiment [1] was inactive.
In the case of `CN(Cc1c2ccccc2cc2ccccc12)C(=O)C1CC(=O)N(C2CCCCC2)C1` (configuration not stated), in experiment [2], the half-maximal inhibitory concentration (IC50) is 750 nM. Further, it took 125 µM (≈ 51.8 µg/mL) to inhibit growth in experiment [4] (MIC).
For the molecule `O=C(NC1CCCCC1)C1CC(=O)N(C2CCCCC2)C1` (configuration not stated), the result in experiment [1] was inactive.
Consider `CCC(C)NC(=O)C1CC(=O)N(C2CCCCC2)C1` (configuration not stated), for which the result in experiment [1] was inactive.
Regarding `CN(Cc1c2ccccc2cc2ccccc12)C(=O)C1CC(=O)N(C2CCCCCCC2)C1` (configuration not stated), in experiment [2], the IC50 was determined as 620 nM. The same molecule returned an MIC in experiment [4] of 62.5 µM (≈ 27.7 µg/mL).
With `O=C(C1CC(=O)N(C2CCCCC2)C1)N1CCc2ccccc21` (configuration not stated), in experiment [3] (concentration not given here), the inhibition stood at 65%.
Take `COc1cccc(NC(=O)C2CC(=O)N(C3CCCCC3)C2)c1` (configuration not stated): the result in experiment [3] was inactive.
`O=C(Nc1cc(Br)cc(C(F)(F)F)c1)C1CC(=O)N(C2CCCCC2)C1` (configuration not stated): the concentration for half-maximal inhibition (IC50) in experiment [2] was 850 nM. This molecule registered an MIC in experiment [4] of 62.5 µM (≈ 27.1 µg/mL).
As for `O=C(Nc1cccc(O)c1)C1CC(=O)N(C2CCCCC2)C1` (configuration not stated), the result in experiment [3] was inactive.
`O=C(Nc1cccc(-c2ccccc2)c1)C1CC(=O)N(C2CCCCC2)C1` (stereo in doubt; p24) displayed an IC50 in experiment [2] of 390 nM.
In experiment [2], `O=C(Nc1cccc(-c2ccccc2)c1)C1CC(=O)N(C2CCCCC2)C1` (stereo in doubt; p24a) yielded an IC50 of 2100 nM.
